# According to PMC8619434 (Viruses, 2021):
# Entries after “also recorded” stand apart in the source; their conditions may differ.
# Key:
# [1] = system: SARS-CoV-2 spike protein pseudovirus; assay: microbe, parasite or virus in culture; format: cell-based
# [2] = system: VSV-G pseudovirus; assay: microbe, parasite or virus in culture; format: cell-based, vesicular stomatitis virus
# [3] = system: SARS-CoV-2 spike protein pseudovirus; format: cell-based
# [4] = system: SARS-CoV-2 spike protein pseudovirus; format: cell-based; remark: listed apart in the source
# [5] = system: SARS-CoV-2 spike protein pseudovirus; format: cell-based; remark: listed apart in the source
# [6] = within current drug treatment regimes; ref PubChem database; read-out: peak serum concentration (Cmax); cited from earlier work
# [7] = in vitro; settings: human, % Viability of SARS-2-Spike pv
# [8] = system: SARS-CoV-1-S pseudovirus; format: cell-based
# [9] = system: MERS-CoV-S pseudovirus; format: cell-based
# [10] = system: SARS-CoV-2 spike protein pseudovirus; format: cell-based; remark: listed apart in the source
# [11] = system: SARS-CoV-2 spike protein pseudovirus; format: cell-based; remark: listed apart in the source
# [12] = system: SARS-CoV-2 spike protein pseudovirus; settings: Caco-2
Structure (SMILES),"activity at 10 µM ([1]; 293T/ACE2, 48 h, read-out: % Infectivity of SARS-2-Spike pv) [%]","IC50 ([1]; 293T/ACE2, read-out: IC50 of SARS-CoV-2-S pseudovirus infectivity) [nM]","activity at 10 µM ([2]; Pseudovirus, 293T/ACE2, read-out: % Infectivity of VSV-G pv) [%]","% infectivity, drug added at 1 hpi (post-entry) [3]",% infectivity in attachment assay [4],% infectivity of SARS-CoV-2 pseudovirus in Calu3 cells [5],Cmax [6] [nM],viability [7] [%],% Infectivity of SARS-2-Spike pv [1],% Infectivity of VSV-G pv [2],inhibition of SARS-CoV-1-S pseudovirus infection [8],inhibition of MERS-CoV-S pseudovirus infection [9],inhibition of SARS-CoV-2 pseudovirus infection of Vero cells [10],inhibition of SARS-CoV-2 pseudovirus infection of A549-ACE2 cells [11],inhibition of SARS-CoV-2 pseudovirus infection of Caco2 cells [12]
CN(C)CC/C=C1/c2ccccc2Sc2ccc(Cl)cc21 [chlorprothixene],5,1940,48,45%,did not inhibit virus attachment,44%,1400,97,,,,,,,
"CC(C)OC(=O)OCOP(=O)(CO[C@H](C)Cn1cnc2c(N)ncnc21)OCOC(=O)OC(C)C.O=C(O)/C=C/C(=O)O [tenofovir, tenofovir disoproxil fumarate]",,,,complete inhibition,,complete inhibition,,,completely inhibited,potently inhibited; also recorded: completely inhibited,completely inhibited,completely inhibited,complete inhibition,complete inhibition,complete inhibition
